From US20230167105A1, “BCL-2 PROTEIN INHIBITORS” (Recurium IP Holdings, LLC, priority 2020, published 2023)

Assays:
MOLT-4 cells = experiment: MOLT-4 Cell Proliferation Assay (CellTiter-Glo); assay type: cell-based; details: Homo sapiens, 72 h, read-out: MOLT-4 CTG IC50
Outline: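 MOLT-4 cells at 50,000/well in serum-supplemented medium received a 10-point 1:3 dilution series (top 10 μM final, 0.1% DMSO) in duplicate for 72 h at 37 °C. Viability was read as CellTiter-Glo luminescence, and IC50 came from nonlinear regression.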

Bcl-xL = target: T1, Bcl-xL (Homo sapiens, UniProt Q07817); experiment: Protein Degradation Assay in MOLT-4 Cells (Western blot); assay type: cell-based; details: for BCL-xL degradation in MOLT-4 cells: 50 nM compound, 16 hours, FIGS. 7 and 8; for BCL-xL degradation in MOLT-4 cells, dose dependence: FIG. 9; for Bcl-xL degradation with proteasome inhibitor MG132: MOLT-4 cells pretreated with 1 μM MG132 for 1 hour, then 100 nM compound for 16 h, FIG. 10
T1 construct: endogenous in cells; host or cells: MOLT-4 (ATCC CRL-1582)
Protocol: MOLT-4 (ATCC, CRL-1582) (FIGS. 7,8) were incubated with vehicle or 50 nM concentrations of the indicated compounds for 16 hours. For proteasome inhibition, MOLT-4 cells (250,000 cells/well) were pretreated with 1 μM of MG132 for 1 hour before the addition of 100 nM of the indicated compounds for 16 h. After treatment, the cells were harvested in RIPA lysis buffer supplemented with 1% Phosphatase Inhibitor and Protease Inhibitor Cocktail. An equal amount of protein (10 μg/lane) from each cell extract was resolved on a 4-12% Bis-Tris gel. Proteins were transferred using iBlot 2 Transfer Stacks. The membranes were blocked with 5% nonfat milk in TBS-T buffer (50 mM Tris-HCL, pH 7.6; 150 mM NaCl; and 0.05% Tween) and probed with primary antibodies (1:1000 dilution) overnight at 4° C. After three washes with TBS-T (10 min/wash), the membranes were incubated with an appropriate peroxidase-conjugated secondary antibody (Cell Signaling Technology, USA) for 1 hour at rt. After three washes with TBS-T, the proteins of interest were detected with ECL Western Blotting Detection Reagents and captured with an Azure imaging system. The band intensities were determined using ImageJ software and normalized to loading control β-actin or GAPDH. The primary antibodies Bcl-xL (#2762), Bcl-2 (#2872s), and GAPDH (#5174) were purchased from Cell Signaling Technology.

T1 sequence (Q07817 whole entry): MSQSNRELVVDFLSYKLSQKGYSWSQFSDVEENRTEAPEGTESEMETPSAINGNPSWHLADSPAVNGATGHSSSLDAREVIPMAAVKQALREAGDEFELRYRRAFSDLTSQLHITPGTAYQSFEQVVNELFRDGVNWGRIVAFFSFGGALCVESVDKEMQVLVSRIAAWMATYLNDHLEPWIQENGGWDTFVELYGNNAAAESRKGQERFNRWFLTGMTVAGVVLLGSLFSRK

Compound | IC50 (MOLT-4 cells) [nM] | BCL-xL degradation in MOLT-4 cells (Bcl-xL) | BCL-xL degradation in MOLT-4 cells, dose dependence (Bcl-xL) | Bcl-xL degradation with proteasome inhibitor MG132 (Bcl-xL)
Cc1ncsc1-c1ccc([C@H](C)NC(=O)[C@@H]2C[C@@H](O)CN2C(=O)[C@@H](NC(=O)CCCCCC(=O)N2CCN(CC[C@H](CSc3ccccc3)Nc3ccc(S(=O)(=O)NC(=O)c4ccc(N5CCN(CC6=C(C78CC(C(F)F)(C7)C8)CC(C)(C)CC6)CC5)cc4)cc3S(=O)(=O)C(F)(F)F)CC2)C(C)(C)C)cc1 [Example 6, (2S,4R)-1-((S)-2-(7-(4-((R)-3-((4-(N-(4-(4-((2-(3-(difluoromethyl)bicyclo[1.1.1]pentan-1-yl)-4,4-dimethylcyclohex-1-en-1-yl)methyl)piperazin-1-yl)benzoyl)sulfamoyl)-2-((trifluoromethyl)sulfonyl)phenyl)amino)-4-(phenylthio)butyl)piperazin-1-yl)-7-oxoheptanamido)-3,3-dimethylbutanoyl)-4-hydroxy-N—((S)-1-(4-(4-methylthiazol-5-yl)phenyl)ethyl)pyrrolidine-2-carboxamide] | 50 to 150 | induce BCL-xL degradation | can induce BCL-xL degradation in MOLT-4 cells in a dose dependent manner | can be inhibited by proteasome inhibitor MG132
Cc1ncsc1-c1ccc([C@H](C)NC(=O)[C@@H]2C[C@@H](O)CN2C(=O)[C@@H](NC(=O)CCCCCC(=O)N2CCN(CC[C@H](CSc3ccccc3)Nc3ccc(S(=O)(=O)NC(=O)c4ccc(N5CCN(CC6=C(C78CC(C)(C7)C8)CC(C)(C)CC6)CC5)cc4)cc3S(=O)(=O)C(F)(F)F)CC2)C(C)(C)C)cc1 [Example 9, (2S,4R)-1-((S)-2-(7-(4-((R)-3-((4-(N-(4-(4-((4,4-dimethyl-2-(3-methylbicyclo[1.1.1]pentan-1-yl)cyclohex-1-en-1-yl)methyl)piperazin-1-yl)benzoyl)sulfamoyl)-2-((trifluoromethyl)sulfonyl)phenyl)amino)-4-(phenylthio)butyl)piperazin-1-yl)-7-oxoheptanamido)-3,3-dimethylbutanoyl)-4-hydroxy-N—((S)-1-(4-(4-methylthiazol-5-yl)phenyl)ethyl)pyrrolidine-2-carboxamide] | 50 to 150 | induce BCL-xL degradation |  | 
Cc1ncsc1-c1ccc([C@H](C)NC(=O)[C@@H]2C[C@@H](O)CN2C(=O)[C@@H](NC(=O)CCCCCCCC(=O)N2CCN(CC[C@H](CSc3ccccc3)Nc3ccc(S(=O)(=O)NC(=O)c4ccc(N5CCN(CC6=C(C78CC(C)(C7)C8)CC(C)(C)CC6)CC5)cc4)cc3S(=O)(=O)C(F)(F)F)CC2)C(C)(C)C)cc1 [Example 24, (2S,4R)-1-((S)-2-(9-(4-((R)-3-((4-(N-(4-(4-((4,4-dimethyl-2-(3-methylbicyclo[1.1.1]pentan-1-yl)cyclohex-1-en-1-yl)methyl)piperazin-1-yl)benzoyl)sulfamoyl)-2-((trifluoromethyl)sulfonyl)phenyl)amino)-4-(phenylthio)butyl)piperazin-1-yl)-9-oxononanamido)-3,3-dimethylbutanoyl)-4-hydroxy-N—((S)-1-(4-(4-methylthiazol-5-yl)phenyl)ethyl)pyrrolidine-2-carboxamide] | 50 to 150 | induce BCL-xL degradation |  | 
Cc1ncsc1-c1ccc([C@H](C)NC(=O)[C@@H]2C[C@@H](O)CN2C(=O)[C@@H](NC(=O)CCCCCCN2CCN(CC[C@H](CSc3ccccc3)Nc3ccc(S(=O)(=O)NC(=O)c4ccc(N5CCN(CC6=C(C78CC(C)(C7)C8)CC(C)(C)CC6)CC5)cc4)cc3S(=O)(=O)C(F)(F)F)CC2)C(C)(C)C)cc1 [Example 25, (2S,4R)-1-((S)-2-(7-(4-((R)-3-((4-(N-(4-(4-((4,4-dimethyl-2-(3-methylbicyclo[1.1.1]pentan-1-yl)cyclohex-1-en-1-yl)methyl)piperazin-1-yl)benzoyl)sulfamoyl)-2-((trifluoromethyl)sulfonyl)phenyl)amino)-4-(phenylthio)butyl)piperazin-1-yl)heptanamido)-3,3-dimethylbutanoyl)-4-hydroxy-N—((S)-1-(4-(4-methylthiazol-5-yl)phenyl)ethyl)pyrrolidine-2-carboxamide] | 50 to 150 | induce BCL-xL degradation |  | 
Cc1ncsc1-c1ccc([C@H](C)NC(=O)[C@@H]2C[C@@H](O)CN2C(=O)[C@@H](NC(=O)CCCCCCCN(C)CC[C@H](CSc2ccccc2)Nc2ccc(S(=O)(=O)NC(=O)c3ccc(N4CCN(CC5=C(C67CC(C(F)F)(C6)C7)CC(C)(C)CC5)CC4)cc3)cc2S(=O)(=O)C(F)(F)F)C(C)(C)C)cc1 [Example 28, (2S,4R)-1-((S)-2-(8-(((R)-3-((4-(N-(4-(4-((2-(3-(difluoromethyl)bicyclo[1.1.1]pentan-1-yl)-4,4-dimethylcyclohex-1-en-1-yl)methyl)piperazin-1-yl)benzoyl)sulfamoyl)-2-((trifluoromethyl)sulfonyl)phenyl)amino)-4-(phenylthio)butyl)(methyl)amino)octanamido)-3,3-dimethylbutanoyl)-4-hydroxy-N—((S)-1-(4-(4-methylthiazol-5-yl)phenyl)ethyl)pyrrolidine-2-carboxamide] | 50 to 150 | induce BCL-xL degradation |  | 
CC1(C)CCC(CN2CCN(c3ccc(C(=O)NS(=O)(=O)c4ccc(N[C@H](CCN5CCN(CCCC#Cc6ccc7c(c6)CN(C6CCC(=O)NC6=O)C7=O)CC5)CSc5ccccc5)c(S(=O)(=O)C(F)(F)F)c4)cc3)CC2)=C(C23CC(C(F)F)(C2)C3)C1 (stereo partly shown) [Example 30] | ≤ 50 |  | can induce BCL-xL degradation in MOLT-4 cells in a dose dependent manner | can be inhibited by proteasome inhibitor MG132
Cc1ncsc1-c1ccc([C@H](C)NC(=O)[C@@H]2C[C@@H](O)CN2C(=O)[C@@H](NC(=O)CCCCC(=O)N(C)C2CCN(CC[C@H](CSc3ccccc3)Nc3ccc(S(=O)(=O)NC(=O)c4ccc(N5CCN(CC6=C(C78CC(C(F)F)(C7)C8)CC(C)(C)CC6)CC5)cc4)cc3S(=O)(=O)C(F)(F)F)CC2)C(C)(C)C)cc1 [Example 43, N1-(1-((R)-3-((4-(N-(4-(4-((2-(3-(difluoromethyl)bicyclo[1.1.1]pentan-1-yl)-4,4-dimethylcyclohex-1-en-1-yl)methyl)piperazin-1-yl)benzoyl)sulfamoyl)-2-((trifluoromethyl)sulfonyl)phenyl)amino)-4-(phenylthio)butyl)piperidin-4-yl)-N6-((S)-1-((2S,4R)-4-hydroxy-2-(((S)-1-(4-(4-methylthiazol-5-yl)phenyl)ethyl)carbamoyl)pyrrolidin-1-yl)-3,3-dimethyl-1-oxobutan-2-yl)-N1-methyladipamide] | 50 to 150 | induce BCL-xL degradation |  | 
Cc1cc([C@H](C(=O)N2C[C@H](O)C[C@H]2C(=O)N[C@@H](CC(=O)NCCCCCC(=O)N2CCN(CC[C@H](CSc3ccccc3)Nc3ccc(S(=O)(=O)NC(=O)c4ccc(N5CCN(CC6=C(C78CC(C(F)F)(C7)C8)CC(C)(C)CC6)CC5)cc4)cc3S(=O)(=O)C(F)(F)F)CC2)c2ccc(-c3scnc3C)cc2)C(C)C)on1 [Example 50, (2S,4R)—N—((S)-3-((6-(4-((R)-3-((4-(N-(4-(4-((2-(3-(difluoromethyl)bicyclo[1.1.1]pentan-1-yl)-4,4-dimethylcyclohex-1-en-1-yl)methyl)piperazin-1-yl)benzoyl)sulfamoyl)-2-((trifluoromethyl)sulfonyl)phenyl)amino)-4-(phenylthio)butyl)piperazin-1-yl)-6-oxohexyl)amino)-1-(4-(4-methylthiazol-5-yl)phenyl)-3-oxopropyl)-4-hydroxy-1-((R)-3-methyl-2-(3-methylisoxazol-5-yl)butanoyl)pyrrolidine-2-carboxamide] | ≥ 150 |  |  | 
Cc1cc([C@@H](C(=O)N2C[C@H](O)C[C@H]2C(=O)N[C@@H](CC(=O)NCCCCCC(=O)N2CCN(CC[C@H](CSc3ccccc3)Nc3ccc(S(=O)(=O)NC(=O)c4ccc(N5CCN(CC6=C(C78CC(C(F)F)(C7)C8)CC(C)(C)CC6)CC5)cc4)cc3S(=O)(=O)C(F)(F)F)CC2)c2ccc(-c3scnc3C)cc2)C(C)C)on1 [Example 56, (2S,4R)—N—((S)-3-((6-(4-((R)-3-((4-(N-(4-(4-((2-(3-(difluoromethyl)bicyclo[1.1.1]pentan-1-yl)-4,4-dimethylcyclohex-1-en-1-yl)methyl)piperazin-1-yl)benzoyl)sulfamoyl)-2-((trifluoromethyl)sulfonyl)phenyl)amino)-4-(phenylthio)butyl)piperazin-1-yl)-6-oxohexyl)amino)-1-(4-(4-methylthiazol-5-yl)phenyl)-3-oxopropyl)-4-hydroxy-1-((S)-3-methyl-2-(3-methylisoxazol-5-yl)butanoyl)pyrrolidine-2-carboxamide] | ≥ 150 |  |  | 
